Key:
[1] = Keto-enol/diketo tautomer amounts by 1H NMR; type: physicochemical; conditions: molar percentage, MeOD-d4, 298 K; for KE (%) amount of keto–enol form: for 2 includes KE form of the Z isomer (6%)
Experimental: NMR spectra were recorded by means of a Bruker Biospin FT-NMR AVANCE III HD (600 MHz) spectrometer equipped with a CryoProbe BBO H&F 5 mm in inverse detection. The nominal frequencies were 150.90 MHz for ^13C and 600.13 MHz for ^1H, respectively. For each sample, 1–5 mg were weighed and diluted up to 0.6 mL with a proper solvent in a 5 mm NMR tube; 90° pulse was calibrated for each sample, and standard NMR parameters were used to achieve quantitative results (relaxation delay, 10 s). Proton and carbon chemical shifts are given in parts per million (ppm) versus external TMS and were determined by reference to the solvent residual signals. Typical 2D homo- and heteronuclear techniques were used for assignment, i.e., ^1H,^1H COSY, ^1H,^13C HSQC, ^1H,^13C HMBC. NMR investigations of Ga^3+:L systems were performed in MeOD-d4 by adding small amounts of a Ga(NO3)3 solution (10 μL each) to 1 mM ligand solution (0.6 mL) until reaching the desired metal-to-ligand molar ratio. The complexation reaction is fast, and spectra were registered few minutes after the addition. Two-dimensional ^1H,^13C heteronuclear multiple bond correlation (HMBC) experiments (hmbcgpndqf in Bruker library) were performed via heteronuclear zero and double quantum coherence, optimized on long-range couplings (^3/4JHC = 8 Hz), with no decoupling during acquisition, and gradient pulses were used for selection. The relative percentages of the isomeric forms were estimated on the basis of the NMR data. Particularly, ^1H NMR spectra were acquired in quantitative conditions being D1 (relaxation delay) at least five times the T1 of the slowest relaxing signal of interest. The raw data were Fourier-transformed, and then the processing was performed by zero filling (SI = TD), line broadening (lb 0.3 Hz), accurate phasing and correcting the baseline. The most isolated signals were selected for integration, i.e., the vinyl protons (H-3 and H-4), and an average of the integrated area (A) of H-3 and H-4 was used for relative quantitation, according to the following equation: %Tautomeri=(A(H−3)i+(A(H−4)i)/2/∑i(A(H−3)i+(A(H−4)i)/2×100

[2] = Kinetic stability of ligands in simulated physiological conditions (UV-Vis); type: physicochemical; conditions: for Stability: percentage of the residual ligand after 4 h: PBS, pH 7.4, 37 °C in darkness; for Stability ranking (residual ligand after 4 h): rank among the 7 ligands, 1 = most stable
Experimental: The chemical stability of ligands and metal complexes at the M:L 1:L molar ratio at 37 °C in darkness was evaluated by UV−Vis spectroscopy as a change in absorbance in the 250−600 nm range over an overall period of 8 h. Solutions (5.0 × 10^–5 mol L^–1) of the ligands were prepared in 0.1 mol L^–1 phosphate-buffered solution (PBS) at pH 7.4. Spectra were recorded every 30 min. All profiles were linearized as the hyperbolic function defined by Equation (2), which represents an empirical model that describes drug decomposition or release well [42]:(2) t/f%=at+b where f% is the percentage of the residual compound at time t (min) referred to the starting concentration at time zero determined by reading the absorbance at λmax.

[3] = test system: HCT116 colon carcinoma cells; assay: MTT cell viability assay; type: cell-based, Human; conditions: mean
Experimental: Human colorectal carcinoma HCT116 cells (#91091005, ECACC) were grown in an IMDM medium (Biowest) supplemented with 2 mM glutamine, 100 IU/mL penicillin, 100 μg/mL streptomycin and 10% FBS (Gibco). The cell lines were grown at 37 °C in a humidified incubator containing 5% CO2. The cells were verified to be mycoplasma-free and passaged < 3 months. The inhibition of cell proliferation was measured by colorimetric 3-(4,5-dimethylthiazol-2-yl)-2,5-diphenyltetrazolium bromide (MTT) assay. GI50 concentrations were determined using the CompuSyn software version 1.0 (ComboSyn, Inc., Paramus, NJ USA) (free download via www.combosyn.com, accessed on 30 May 2022), and statistical analyses were performed using the GraphPad PRISM software (version 6.01 for Windows, GraphPad Software, San Diego, California USA GraphPad Prism) using unpaired t-test. Data were considered to be statistically significant if p < 0.05 (*), p < 0.01 (**), p < 0.001(***) and p < 0.0001 (****).

2-((4Z,6E)-5-hydroxy-7-(4-hydroxyphenyl)-4-((E)-3-(4-hydroxy-3-ethoxyphenyl) acryloyl) hepta-4,6-dien-1-yl)isoindoline-1,3-dione [Compound 5]
KK (%) amount of diketo form [1]: 30% | KE (%) amount of keto–enol form [1]: 70% | Stability: percentage of the residual ligand after 4 h [2]: 52% | Stability ranking (residual ligand after 4 h) [2]: 5 | GI50 ([3]; HCT116, 48 h of treatment): 8.76 µM

COc1cc(/C=C/C(=O)C(CCCN2C(=O)c3ccccc3C2=O)C(=O)/C=C/c2ccc(O)c(OC)c2)ccc1O [Compound 4]
KK (%) amount of diketo form [1]: 53% | KE (%) amount of keto–enol form [1]: 47% | Stability: percentage of the residual ligand after 4 h [2]: 42% | Stability ranking (residual ligand after 4 h) [2]: 7 | GI50 ([3]; Homo sapiens, HCT-116, HCT116, 48 h of treatment): 5.36 µM
